From patent US12636290B2, “BET inhibitors for modulating DUX4 expression in FSHD” (Saint Louis University, priority 2018, dated 2026)
Where a name gives a salt, the structure may show the parent alone. Read-outs that look alike come from different tables or passages of the source.

System: DUX4 expression (surrogate marker MBD3L2)
Experiment: Screening: qPCR analysis of DUX4 target gene MBD3L2 in differentiating MB200 FSHD2 muscle cells
Format: cell-based
Details: Homo sapiens, 40 hours, DUX4 expression inferred from surrogate marker MBD3L2 expression (qPCR, normalized to RPL30)
Experimental: Cells and Cell Culture. Primary human myoblast cell lines, immortalized by retroviral transduction of cyclin-dependent kinase 4 (CDK4) and human telomerase reverse transcriptase (hTERT) (Stadler, et al., 2011), were obtained from the Fields Center at the University of Rochester (world-wide-web at urmc.rochester.edu/fields-center.aspx). Immortalized myoblasts were grown in Ham's F-10 Nutrient Mix (Gibco, Waltham, MA, USA) supplemented with 20% HyClone Fetal Bovine Serum (GE Healthcare Life Sciences, Pittsburgh, PA, USA), 100 U/100 μg penicillin/streptomycin (Gibco), 10 ng/ml recombinant human fibroblast growth factor (Promega Corporation, Madison, WI, USA) and 1 μM dexamethasone (Sigma-Aldrich). Differentiation of myoblasts into myotubes was achieved by switching the fully confluent myoblast monolayer into Dulbecco's Modified Eagle Medium (DMEM) (Gibco) containing 1% horse serum (Gibco), 100 U/100 μg penicillin/streptomycin, 10 μg/ml insulin (Sigma-Aldrich) and 10 μg/ml transferrin (Sigma-Aldrich) (HS/IT media) or DMEM:F12 Nutrient Mixture (1:1, Gibco) supplemented with 2% KnockOut Serum Replacement (Gibco), 100 U/100 μg penicillin/streptomycin, 10 μg/ml insulin and 10 μg/ml transferrin (KSR media) for 2-6 days.
Screening: qPCR analysis of DUX4 target genes MBD3L2. For screening compounds, differentiating MB200 FSHD2 muscle cells were exposed to BET inhibitors at a variety of concentrations for 40 hours to determine the effects of the drugs on DUX4 expression. Cell lysates were prepared using Cells-to-Ct Bulk Lysis Reagents (Invitrogen, Waltham, MA, USA). Gene expression was measured by quantitative polymerase chain reaction (qPCR) was carried out on a QuantStudio 5 (Applied Biosystems, Waltham, MA, USA) using TaqMan Gene Expression Assays (Applied Biosystems) and TaqMan Fast Virus 1-Step Master Mix (Invitrogen). The relative expression levels of DUX4 target gene methyl-CpG binding domain protein 3 like 2 (MBD3L2), was normalized to that of the reference gene ribosomal protein L30 (RPL30), which was included in multiplex (two gene) PCR reactions. TaqMan Gene Expression Assay ID numbers: MBD3L2, Hs00544743_m1; RPL30, Hs00265497_m1. Data is expressed as relative expression with the expression in absence of inhibitors set to one.
Analysis of MBD3L2 expression in cultured FSHD2 cells. DUX4 mRNA is present in very low levels, even in differentiating FSHD2 myoblasts, so DUX4 target gene MBD3L2 was used as a surrogate marker of DUX4 expression. FSHD2 patient derived muscle cells were analyzed to determine whether BET inhibitors affect MBD3L2 expression, indicating a reduction in DUX4 expression.

## Cn1cc(-c2ccc(N3CCC4(CCNCC4)CC3)nc2)c2cc[nH]c2c1=O [SLU-2130, 4-[6-(3,9-diazaspiro[5.5]undecan-3-yl)pyridin-3-yl]-6-methyl-1H-pyrrolo[2,3-c]pyridin-7(6H)-one·hydrochloride]
read-out: DUX4* MT FSHD2: IC50
  IC50: 120 nM
read-out: DUX4* MT FSHD2 IC50
  IC50: 120 nM

## CN1CCN(CCOc2ccc(C3CCN(c4ccc(-c5cn(C)c(=O)c6[nH]ccc56)cn4)CC3)cc2)CC1=O [SLU-2131, 6-methyl-4-{6-[4-(4-(2-(4-methyl-3-oxopiperazin-1-yl)ethoxy)phenyl)piperidin-1-yl]pyridin-3-yl}-1H-pyrrolo[2,3-c]pyridin-7(6H)-one]
read-out: DUX4* MT FSHD2: IC50
  IC50: 62 nM
read-out: DUX4* MT FSHD2 IC50
  IC50: 62 nM

## C[C@@H]1C(=O)N(C)CCN1CCOc1ccc2nc(-c3ccc(-c4cn(C)c(=O)c5[nH]ccc45)cc3)ccc2c1 [SLU-2211, (R)-4-{4-[6-(2-(2,4-dimethyl-3-oxopiperazin-1-yl)ethoxy)quinolin-2-yl]phenyl}-6-methyl-1H-pyrrolo[2,3-c]pyridin-7(6H)-one]
read-out: DUX4* MT FSHD2: IC50
  IC50: 62 nM
read-out: DUX4* MT FSHD2 IC50
  IC50: 62 nM

## C[C@@H]1C(=O)N(C)CCN1CCOc1ccc(C2CCN(c3ccc(-c4cn(C)c(=O)c5[nH]ccc45)cc3)CC2)cc1 [SLU-2212, (R)-4-{4-[4-(4-(2-(2,4-dimethyl-3-oxopiperazin-1-yl)ethoxy)phenyl)piperidin-1-yl]phenyl}-6-methyl-1H-pyrrolo[2,3-c]pyridin-7(6H)-one]
read-out: DUX4* MT FSHD2: IC50
  IC50: 86 nM
read-out: DUX4* MT FSHD2 IC50
  IC50: 86 nM

## C[C@@H]1C(=O)N(C)CCN1CCOc1ccc(-c2ccc3nc(-c4cn(C)c(=O)c5[nH]ccc45)ccc3c2)nc1 [SLU-2213]
read-out: DUX4* MT FSHD2: IC50
  IC50: 41 nM
read-out: DUX4* MT FSHD2 IC50
  IC50: 41 nM

## Cn1cc(-c2ccc(N3CCC4(CCNCC4)C3)nc2)c2cc[nH]c2c1=O [SLU-2214, 4-[6-(2,8-diazaspiro[4.5]decan-2-yl)pyridin-3-yl]-6-methyl-1H-pyrrolo[2,3-c]pyridin-7(6H)-one]
read-out: DUX4* MT FSHD2: IC50
  IC50: 95 nM
read-out: DUX4* MT FSHD2 IC50
  IC50: 95 nM

## C[C@@H]1C(=O)N(C)CCN1CCOc1ccc(-c2cc3ccc(-c4cn(C)c(=O)c5[nH]ccc45)cc3cn2)cc1 [SLU-2217, (R)-4-{3-[4-(2-(2,4-dimethyl-3-oxopiperazin-1-yl)ethoxy)phenyl]isoquinolin-7-yl}-6-methyl-1H-pyrrolo[2,3-c]pyridin-7(6H)-one]
read-out: DUX4* MT FSHD2: IC50
  IC50: 22 nM
read-out: DUX4* MT FSHD2 IC50
  IC50: 22 nM

## Cn1cc(-c2ccc(N3CCC4(CCN(C(=O)CO)CC4)C3)nc2)c2cc[nH]c2c1=O [SLU-2218, 4-{6-[8-(2-hydroxyacetyl)-2,8-diazaspiro[4.5]decan-2-yl]pyridin-3-yl}-6-methyl-1H-pyrrolo[2,3-c]pyridin-7(6H)-one]
read-out: DUX4* MT FSHD2: IC50
  IC50: 41 nM
read-out: DUX4* MT FSHD2 IC50
  IC50: 41 nM

## C[C@@H]1C(=O)N(C)CCN1CCOc1ccc(-c2ccc3cc(-c4cn(C)c(=O)c5[nH]ccc45)ncc3c2)cc1 [SLU-2219, (R)-4-{7-[4-(2-(2,4-dimethyl-3-oxopiperazin-1-yl)ethoxy)phenyl]isoquinolin-3-yl}-6-methyl-1H-pyrrolo[2,3-c]pyridin-7(6H)-one]
read-out: DUX4* MT FSHD2: IC50
  IC50: 95 nM
read-out: DUX4* MT FSHD2 IC50
  IC50: 95 nM

## C[C@@H]1C(=O)N(C)CCN1CCOCC(=O)N1CCC2(CC1)CCN(c1ccc(-c3cn(C)c(=O)c4[nH]ccc34)cn1)CC2 [SLU-2225, (R)-4-{6-[9-(2-(2-(2,4-dimethyl-3-oxopiperazin-1-yl)ethoxy)acetyl)-3,9-diazaspiro[5.5]undecan-3-yl]pyridin-3-yl}-6-methyl-1H-pyrrolo[2,3-c]pyridin-7(6H)-one]
read-out: DUX4* MT FSHD2: IC50
  IC50: 35 nM
read-out: DUX4* MT FSHD2 IC50
  IC50: 35 nM

## C[C@@H]1C(=O)N(C)CCN1CCOc1ccc(C#Cc2ccc(-c3cn(C)c(=O)c4[nH]ccc34)cc2)cc1 [SLU-2226, (R)-4-{4-[(4-(2-(2,4-dimethyl-3-oxopiperazin-1-yl)ethoxy)phenyl)ethynyl]phenyl}-6-methyl-1H-pyrrolo[2,3-c]pyridin-7(6H)-one]
read-out: DUX4* MT FSHD2: IC50
  IC50: 47 nM
read-out: DUX4* MT FSHD2 IC50
  IC50: 47 nM

## C[C@@H]1C(=O)N(C)CCN1CCOc1ccc(CCc2ccc(-c3cn(C)c(=O)c4[nH]ccc34)cc2)cc1 [SLU-2227, (R)-4-{4-[4-(2-(2,4-dimethyl-3-oxopiperazin-1-yl)ethoxy)phenethyl]phenyl}-6-methyl-1H-pyrrolo[2,3-c]pyridin-7(6H)-one]
read-out: DUX4* MT FSHD2: IC50
  IC50: 69 nM
read-out: DUX4* MT FSHD2 IC50
  IC50: 69 nM
